The values that follow come from patent US12247018B2, “Aryl-n-aryl derivatives for treating a RNA virus infection” (ABIVAX, priority 2018, dated 2025).

In the assay the test system is RSV A2. In words: RSV inhibition (cytopathic effect) in HEp-2 cells using Viral ToxGlo assay. Conditions: human respiratory syncytial virus; RSV A2, HEp-2 cells, MOI 0.5, 72 h p.i. The assay is classed as cell-based. On the procedure: Protocol for Screening Antiviral Compounds for RSV Inhibition and Cytotoxicity Using Viral ToxGlo Assay
HEp-2 cells were maintained in Eagle's minimum essential medium (EMEM) with Earle's BSS adjusted to contain 2 mM L-glutamine, 10% fetal bovine serum, 100 U/ml penicillin and 100 μg/ml streptomycin. For the purposes of the screening assay they were grown to 90% confluency, trypsinized and recovered. The trypsin was neutralised with cell culture media and cells were centrifuged at 150×g for 5 minutes before discarding the supernatant and resuspending cell pellet in assay media (EMEM with Earle's BSS adjusted to contain 2 mM L-glutamine, 2% fetal bovine serum and 100 U/ml penicillin and 100 μg/ml streptomycin). The cells were seeded into white clear-bottomed cell culture plates at a density of 1.5×10^4 cells/well in 50 μl and 4×10^3 cells/well in 25 μl for 96 well plates and 384 well plates respectively. For the media/background control column assay media only was added. Cell plates were placed in a humid chamber and incubated overnight at 37° C./5% CO2. After overnight incubation cells were checked for confluency and healthy appearance.
Test articles were made up at 10× test concentration in a maximum DMSO concentration of 10% (final assay concentration maximal 1% DMSO) and added to the cell plates in volumes of 10 μl for 96 well plates and 5 μl for 384 well plates. For cell control and virus control wells the test article solvent only was added. Virus or assay media for cytotoxicity test wells and media/cell control wells was added immediately after test articles at an MOI of 0.5, 40 or 20 μl for 96 and 384 well plates respectively. Virus suspension was prepared by thawing RSV A2 frozen stocks and diluting to the required concentration of plaque forming units in assay media on ice.
Cell plates were further incubated inside a humid chamber for 72 h p.i at 37° C./5% CO2. After the incubation period cells were observed under the microscope to check for characteristic cytopathic effect in virus control wells and healthy cells in the cell control wells. After plates were adjusted to room temperature 20/40 μl Viral ToxGlo (Promega) was added to each well of the 384/96 well cell plates. Plates were incubated at room temperature, protected from light on a plate rocker for 20 minutes before measuring the luminescence on a spectrophotometer (Biotek Synergy HTX).
On the technique in general: Protection from cytopathic effect is a common read-out in antiviral testing.
With `Cc1c(Nc2ccc(C(=O)N=C3NCCCN3)cc2C2CC2)cccc1-c1ncc(Cl)[nH]1` [compound 141, 4-{[3-(5-chloro-1H-imidazol-2-yl)-2-methylphenyl]amino}-3-cyclopropyl-N-(1,3-diazinan-2-ylidene)benzamide], the EC50 (commonly the concentration giving half of the maximal effect) was determined as 370 nM.

On to `Cc1cc(C(=O)N=C2NCCCN2)ccc1Nc1cccc(NC(=O)CCC2CCCCC2)c1` [compound 153, 4-{[3-(3-cyclohexylpropanamido)phenyl]amino}-N-(1,3-diazinan-2-ylidene)-3-methylbenzamide], for which the EC50 came out at 704 nM.

Regarding `CC(C)(C)NC(=O)c1cccc(Nc2ccc(C(=O)N=C3NCCCN3)cc2C2CC2)c1` [compound 123, 4-{[3-(tert-butylcarbamoyl)phenyl]amino}-3-cyclopropyl-N-(1,3-diazinan-2-ylidene)benzamide], the EC50 was 147 nM.

In the case of `Cc1c(Nc2ccc(C(=O)N=C3NCCCN3)cc2C2CC2)cccc1C(=O)NC1(C#N)CC1` [compound 165, 4-({3-[(1-cyanocyclopropyl)carbamoyl]-2-methylphenyl}amino)-3-cyclopropyl-N-(1,3-diazinan-2-ylidene)benzamide], the EC50 is 1760 nM.

Regarding `CC(C)C(=O)Nc1cccc(Nc2ccc(C(=O)/N=C3\NCCC(=O)N3)cc2C2CC2)c1C1CC1` [compound 122, 3-cyclopropyl-4-{[2-cyclopropyl-3-(2-methylpropanamido)phenyl]amino}-N-[(2E)-4-oxo-1,3-diazinan-2-ylidene]benzamide], the EC50 was 141 nM.

Take `CC(C)CCN(C)C(=O)c1cccc(Nc2ccc(C(=O)N=C3NCCCN3)cc2C2CC2)c1` [compound 118, 3-cyclopropyl-N-(1,3-diazinan-2-ylidene)-4-({3-[methyl(3-methylbutyl)carbamoyl]phenyl}amino)benzamide]: the concentration giving a half-maximal response (EC50) amounted to 126 nM.

For the compound `CC(C)C(=O)Nc1cccc(Nc2ccc(C(=O)/N=C3\NCCC(=O)N3)cc2C2CC2)c1` [compound 116, 3-cyclopropyl-4-{[3-(2-methylpropanamido)phenyl]amino}-N-[(2E)-4-oxo-1,3-diazinan-2-ylidene]benzamide], the EC50 was determined as 122 nM.

With `CC(C)CNC(=O)c1cccc(Nc2ccc(C(=O)N=C3NCCCN3)cc2C2CC2)c1` [compound 131, 3-cyclopropyl-N-(1,3-diazinan-2-ylidene)-4-({3-[(2-methylpropyl)carbamoyl]phenyl}amino)benzamide], the EC50 was found to be 246 nM.

In the case of `Cc1c(N)cccc1Nc1ccc(C(=O)N=C2NCCCN2)cc1C1CC1` [compound 135, 4-[(3-amino-2-methylphenyl)amino]-3-cyclopropyl-N-(1,3-diazinan-2-ylidene)benzamide], the EC50 was determined as 286 nM.

Turning to `CC(C)NC(=O)c1ccccc1Nc1ccc(C(=O)/N=C2\NCCC(=O)N2)cc1C(C)(C)C` [compound 100, 3-tert-butyl-N-[(2E)-4-oxo-1,3-diazinan-2-ylidene]-4-({2-[(propan-2-yl)carbamoyl]phenyl}amino)benzamide], the EC50 turned out to be 37 nM.

As for `O=C(N=C1NCCCN1)c1ccc(Nc2cccc(C(=O)NC3COC3)c2)c(C2CC2)c1` [compound 166, 3-cyclopropyl-N-(1,3-diazinan-2-ylidene)-4-({3-[(oxetan-3-yl)carbamoyl]phenyl}amino)benzamide], the EC50 stood at 2740 nM.

On to `CC1(NC(=O)c2cccc(Nc3ccc(C(=O)/N=C4\NCCC(=O)N4)cc3C3CC3)c2)CC1` [compound 121, 3-cyclopropyl-4-({3-[(1-methylcyclopropyl)carbamoyl]phenyl}amino)-N-[(2E)-4-oxo-1,3-diazinan-2-ylidene]benzamide], for which the EC50 is 139 nM.

On to `O=C(N=C1NCCCN1)c1ccc(Nc2cccc(OCCCCC3CCCCC3)c2)c(C2CC2)c1` [compound 140, 4-{[3-(4-cyclohexylbutoxy)phenyl]amino}-3-cyclopropyl-N-(1,3-diazinan-2-ylidene)benzamide], for which the EC50 is 368 nM.

Turning to `CC(C)NC(=O)c1cccc(Nc2ccc(C(=O)N=C3NCCCN3)cc2C2CC2)c1` [compound 102, 3-cyclopropyl-N-(1,3-diazinan-2-ylidene)-4-({3-[(propan-2-yl)carbamoyl]phenyl}amino)benzamide], the EC50 came out at 41 nM.

For `O=C(N=C1NCCCN1)c1ccc(Nc2ccccc2C(=O)NCCC(F)(F)F)c(C2CC2)c1` [compound 159, 3-cyclopropyl-N-(1,3-diazinan-2-ylidene)-4-({2-[(3,3,3-trifluoropropyl)carbamoyl]phenyl}amino)benzamide], the EC50 came out at 1100 nM.

With `O=C(N=C1NCCCN1)c1ccc(Nc2cccc(C(=O)NC3CC3)c2)c(C2CC2)c1` [compound 114, 3-cyclopropyl-4-{[3-(cyclopropylcarbamoyl)phenyl]amino}-N-(1,3-diazinan-2-ylidene)benzamide], the EC50 was 110 nM.

With `CC(C)CCS(=O)(=O)Nc1cccc(Nc2ccc(C(=O)/N=C3\NCCC(=O)N3)cc2C(C)(C)C)c1` [compound 94, 3-tert-butyl-4-{[3-(3-methylbutanesulfonamido)phenyl]amino}-N-[(2E)-4-oxo-1,3-diazinan-2-ylidene]benzamide], the EC50 came out at 17 nM.

For the compound `O=C(N=C1NCCCN1)c1ccc(Nc2cccc(OCCCC3CCCCC3)c2)c(C2CC2)c1` [compound 115, 4-{[3-(3-cyclohexylpropoxy)phenyl]amino}-3-cyclopropyl-N-(1,3-diazinan-2-ylidene)benzamide], the EC50 is 110 nM.

Take `CC1(C)CN1C(=O)c1cccc(Nc2ccc(C(=O)N=C3NCCCN3)cc2C2CC2)c1` [compound 154, 3-cyclopropyl-N-(1,3-diazinan-2-ylidene)-4-{[3-(2,2-dimethylaziridine-1-carbonyl)phenyl]amino}benzamide]: the EC50 came to 917 nM.

With `O=C(N=C1NCCCN1)c1ccc(Nc2cccc(OCC(F)(F)F)c2)c(C2CC2)c1` [compound 124, 3-cyclopropyl-N-(1,3-diazinan-2-ylidene)-4-{[3-(2,2,2-trifluoroethoxy)phenyl]amino}benzamide], the EC50 turned out to be 150 nM.

On to `O=C(N=C1NCCCN1)c1ccc(Nc2cccc(C(O)CCCC3CCCCC3)c2)c(C2CC2)c1` (centres unmarked) [compound 103, 4-{[3-(4-cyclohexyl-1-hydroxybutyl)phenyl]amino}-3-cyclopropyl-N-(1,3-diazinan-2-ylidene)benzamide], for which the concentration giving a half-maximal response (EC50) amounted to 44 nM.

As to `CC(C)CCNC(=O)c1cccc(Nc2ccc(C(=O)N=C3NCCCN3)cc2C2CC2)c1` [compound 113, 3-cyclopropyl-N-(1,3-diazinan-2-ylidene)-4-({3-[(3-methylbutyl)carbamoyl]phenyl}amino)benzamide], the EC50 is 102 nM.

For the compound `O=C(N=C1NCCCN1)c1ccc(Nc2cc(C(=O)NCCC3CCCCC3)ccn2)c(C(F)(F)F)c1` [compound 111, N-(2-cyclohexylethyl)-2-({4-[(1,3-diazinan-2-ylidene)carbamoyl]-2-(trifluoromethyl)phenyl}amino)pyridine-4-carboxamide], the EC50 is 86 nM.

For `O=C(N=C1NCCCN1)c1ccc(Nc2cccc(C(=O)N3CC4CC4C3)c2)c(C2CC2)c1` (centres unmarked) [compound 136, 4-[(3-{3-azabicyclo[3.1.0]hexane-3-carbonyl}phenyl)amino]-3-cyclopropyl-N-(1,3-diazinan-2-ylidene)benzamide], the EC50 is 298 nM.

For `O=C(N=C1NCCCN1)c1ccc(Nc2cccc(C(=O)NCC(F)(F)F)c2)c(C2CC2)c1` [compound 133, 3-cyclopropyl-N-(1,3-diazinan-2-ylidene)-4-({3-[(2,2,2-trifluoroethyl)carbamoyl]phenyl}amino)benzamide], the EC50 is 261 nM.

As for `O=C(N=C1NCCCN1)c1ccc(Nc2cccc(OC(F)(F)F)c2)c(C2CC2)c1` [compound 137, 3-cyclopropyl-N-(1,3-diazinan-2-ylidene)-4-{[3-(trifluoromethoxy)phenyl]amino}benzamide], the EC50 was found to be 304 nM.

Regarding `Cc1c(Nc2ccc(C(=O)N=C3NCCCN3)cc2C2CC2)cccc1C(=O)NCCC(C)C` [compound 96, 3-cyclopropyl-N-(1,3-diazinan-2-ylidene)-4-({2-methyl-3-[(3-methylbutyl)carbamoyl]phenyl}amino)benzamide], the EC50 worked out at 20 nM.

With `CC(C)NC(=O)c1cccc(Nc2ccc(C(=O)/N=C3\NCCC(=O)N3)cc2C(C)(C)C)c1` [compound 98, 3-tert-butyl-N-[(2E)-4-oxo-1,3-diazinan-2-ylidene]-4-({3-[(propan-2-yl)carbamoyl]phenyl}amino)benzamide], the EC50 was determined as 33 nM.

Consider `O=C1CCN/C(=N\C(=O)c2ccc(Nc3cccc(OCC4COCCO4)c3Cl)c(C3CC3)c2)N1` (centres unmarked) [compound 93, 4-({2-chloro-3-[(1,4-dioxan-2-yl)methoxy]phenyl}amino)-3-cyclopropyl-N-[(2E)-4-oxo-1,3-diazinan-2-ylidene]benzamide], for which the EC50 is 13 nM.
